Test results reported in patent US20240108687A1, “COMPOSITIONS AND METHODS FOR USING COMBINATIONS OF ACTIN-BASED PEPTIDES TO MODULATE CELLULAR BIOACTIVITY” (Virongy L.L.C., priority 2021, published 2024).

Assays:
HIV-1 [1] = settings: CD4 T lymphocytes; cited from earlier work
Influenza A virus (IAV) [2] = settings: cited from earlier work
Influenza A virus (IAV) [3] = settings: IAV-infected mice vs solvent-treated control; cited from earlier work
[4] = test system: Murine leukemia virus (MLV), Avian leukosis virus (ALV), and Human immunodeficiency virus (HIV); settings: HEK293T cells transfected with viral receptors; cited from earlier work
HIV-1 [5] = settings: cited from earlier work
Influenza A virus (IAV) [6] = settings: cited from earlier work; remark: listed apart in the source
Influenza A virus (IAV) [7] = settings: MDCK cells; cited from earlier work
Measles virus (MeV) = settings: cited from earlier work
HIV-1 [8] = settings: cited from earlier work; remark: listed apart in the source
[9] = test system: lenti-GFP vector viral particles; experiment: Lentiviral vector (lenti-GFP) transduction of cells, flow cytometry; settings: B11-20AA plus polybrene, 3 days post infection, viable cells (low PI)
Method: Viral transduction of cells was measured at 3 days post infection by flow cytometry. (A) uninfected cells control. (B) Cells were infected with a lenti-GFP vector viral particles. […] Transduction efficiency was measured by the percentage of GFP+ cells. PI,_propidium iodide, was added before flow cytometry for cytotoxicity control (FL3). GFP+ cells were counted only when the cells are viable (low PI staining).

[10] = test system: Lenti-GFP virion particles; experiment: Lentiviral virion infectivity after virion incorporation of actin-based peptide; settings: virions first incubated with peptide to allow virion incorporation; equal amount of virions
Method: (A) Uninfected cells control. (B) Lenti-GFP virion particles were used to directly infect target cells. […] An equal amount of virion particles in (B) and (C) were used for infection. Virion infectivity was measured by the percentage of GFP+ cells.

HEK293T cells = experiment: Liposome transfection of GFP-expression vector DNA with actin-based peptide; type: cell-based; settings: Lenti-GFP DNA + liposome + peptide, 48 hours post transfection
Method: FIG. 6: Example of combination of actin-based peptide with liposome to deliver nucleic acids into cells. HEK293T cells were transfected with a GFP-expression vector DNA (Lenti-GFP) in complex with liposome (DNA+Lipo) or with liposome and an actin-based peptide (N9-A20) (DNA+Lipo+N9). Following transfection, cells were quantified for GFP expression at 48 hours post transfection by flow cytometry.

CD325 (N-cadherin) = experiment: Surface expression of CD325 on H9 lymphocytes, flow cytometry; type: cell-based, Human; settings: H9 lymphocytes treated 40 minutes
Method: (§1) FIG. 7: Example of actin-based peptide to enhance surface expression of multiple cellular receptors including CD325 (N-cadherin), CD144 (VE-cadherin), and CD324 (E-cadherin), which are surface molecule for cell-cell and cell-extracellular matrix binding and adhesion. (A) Human H9 lymphocyte (derivative of HutT 78 cell, from ATCC) were not treated or treated with an actin-based peptide (N7-20AA) for 40 minutes. Cells were stained on ice with PerCy-Cy5.5-labeled mouse anti-human CD325 antibody. Surface expression of CD325 before and after N7-20AA was quantified by flow cytometer. […] (B) Human H9 lymphocyte were not treated or treated with an actin-based peptide (N7-20AA) for 40 minutes. Cells were stained on ice with FITC-labeled mouse anti-human CD144 antibody. Surface expression of CD144 before and after N7-20AA was quantified by flow cytometer. […] (C) Human H9 lymphocyte were not treated or treated with an actin-based peptide (N7-20AA) for 40 minutes. Cells were stained on ice with PE-labeled mouse anti-human CD324 antibody. Surface expression of CD324 before and after N7-20A was quantified by flow cytometer.

CD144 (VE-cadherin) = experiment: Surface expression of CD144 on H9 lymphocytes, flow cytometry; type: cell-based, Human; settings: H9 lymphocytes treated 40 minutes
Method: as §1

CD324 (E-cadherin) = experiment: Surface expression of CD324 on H9 lymphocytes, flow cytometry; type: cell-based, Human; settings: H9 lymphocytes treated 40 minutes
Method: as §1

In the case of `O=C1CSC(c2cccc(Br)c2)N1c1cc(Cl)ccc1O` (stereo not drawn) [CK-548], the “CD4 T cell activation and cytotoxicity at effective dosages” value (HIV-1 [1]) is listed as “did not affect CD4 T cell activation or induce cytotoxicity” and the HIV-1 replication (HIV-1 [1]) is listed as “dramatically reduced HIV-1 replication”.
In the case of `CCN(CC)CCCC(C)Nc1nc(C)cc(Nc2ccc3nc(C)cc(N)c3c2)n1` (stereo not drawn) [NSC23766], the IC50 (Influenza A virus (IAV) [2]; A549 cells, read-out: IC50, reduction of viral replication) is listed as 22 µM, the Viral protein expression (Influenza A virus (IAV) [2]) is listed as “reduced viral protein expression” and the Body weights (Influenza A virus (IAV) [3]) is listed as “increased body weights”. The Survivability (Influenza A virus (IAV) [3]) was “higher survivability” and the “Titer of IAV in lung tissue” value (Influenza A virus (IAV) [3]) was “reduce titer of IAV in lung tissue”.
For `Cc1ccc2c(c1)C(=O)C1(O)CCN(c3ccccc3)C1=N2` (stereo not drawn) [blebbistatin], the Virus surfing [4] is listed as “eliminated virus surfing”.
For `C=C1[C@@H](C)[C@H]2[C@H](Cc3ccccc3)NC(=O)[C@]23[C@H](OC(C)=O)/C=C/[C@@](C)(O)C(=O)[C@@H](C)C/C=C/[C@H]3[C@@H]1O` [cytochalasin D], the “Accumulation of early and late reverse transcription products” value (HIV-1 [5]; pretreating cells, not 2 hours post-infection) is given as “reduced the accumulation of early and late reverse transcription products”, the “Reduction of nuclear accumulation of late RT products” value (HIV-1 [5]; pretreatment) is given as 25 fold and the Virus surfing [4] is given as “eliminated virus surfing”. The “Titers of filamentous and spherical virions” value (Influenza A virus (IAV) [6]) was “dramatically abrogated the titers of the filamentous, but not spherical, virions”, the “Distribution of plasma membrane HA, lipid rafts and actin” value (“Distribution of plasma membrane HA” for short) (Influenza A virus (IAV) [7]) was “dramatically redistributed” and the “Actin and H co-immunoprecipitation with M protein” value (Measles virus (MeV)) was “dramatically reduced actin co-immunoprecipitating with M, while enhancing H co-immunoprecipitation”. For the same molecule, the “Co-transport of M-RNP to the cell surface” value (Measles virus (MeV)) was “reduces co-transport of M-RNP to the cell surface” and the “Rate of cell-cell fusion” value (Measles virus (MeV)) was “enhanced the rate of cell-cell fusion”.
In the case of `C/C1=C\[C@H](C)C[C@H](C)OC(=O)C[C@H](c2ccc(O)cc2)NC(=O)[C@@H](Cc2c(Br)[nH]c3ccccc23)N(C)C(=O)[C@H](C)NC(=O)[C@@H](C)C1` [jasplakinolide], the “Distribution of plasma membrane HA” value (Influenza A virus (IAV) [7]) is listed as “dramatically redistributed”, the “Co-transport of M-RNP to the cell surface” value (Measles virus (MeV)) is listed as “not affecting M-RNP co-transport” and the Free-virus production (Measles virus (MeV)) is listed as “blocked free-virus production”.
For `C/C1=C/C(=O)O[C@@H]2C[C@@H](CC[C@H](C)/C=C\C=C\CC1)O[C@@](O)([C@@H]1CSC(=O)N1)C2` [latrunculin A], the “gag mRNA localisation” value (HIV-1 [8]) is given as “caused retention of gag mRNA in the nucleus” and the “Distribution of plasma membrane HA” value (Influenza A virus (IAV) [7]) is given as “dramatically redistributed”.
For “RRRRRRRR(G/A)0-20DIKEKLCYVALDFEQEMATA [B11-20AA]”, the “Transduction efficiency (percentage of GFP+ cells)” value [9] was “Enhancement of lentiviral vector transduction” and the “Virion infectivity (percentage of GFP+ cells)” value [10] was “Enhancement of lentiviral virion infectivity”.
In the case of “RRRRRRRR(G/A)0-20HTVPIYEGYALPHAILRLDL [N9-A20]”, the “Delivery of nucleic acids into cells (GFP expression)” value (HEK293T cells) is reported as “enhances delivery of nucleic acids into cells”.
In the case of “RRRRRRRR(G/A)0-20QIMFETFNTPAMYVAIQAVL [N7-20AA]”, the “Surface expression of CD325” value (CD325 (N-cadherin)) is reported as “up-regulation of surface expression of CD325”, the “Surface expression of CD144” value (CD144 (VE-cadherin)) is reported as “up-regulation of surface expression of CD144” and the “Surface expression of CD324” value (CD324 (E-cadherin)) is reported as “up-regulation of surface expression of CD324”.
